The source of these data is patent publication EP0359821A1, “METHOD OF STERILIZING PLANT ANTHERS” (priority 1988, dated 1989).

Data set [1] in a line: in vivo. Particulars: mouse, LD50, weisse Mäuse.
In data set [2] the test system is Winterweizens Sorte Mironovskaya 808. The experiment in a line: Field trial of gametocidal activity (anther sterilisation), winter wheat. Type of data set: in vivo, Weizen. The following applies: 2% aqueous emulsion, 20 kg/ha; for Anzahl von Körnern der Ähre bei freier Bestäubung / Anzahl von Körnern der Ähre im Isolator: V. or VI. period of organogenesis; for response vs control in vivo at 20000 g/ha: control = 100, read-out: Prozentsatz des Ansetzens bei freier Bestäubung.

For data set [3], the system named is Tetraploider Roggen Sorte Gibrid 67. The experiment in a line: Field trial of gametocidal activity, tetraploid rye Gibrid 67. Format: in vivo. The following applies: 1% aqueous emulsion, 10 kg/ha; for Prozentsatz des Ansetzens bei freier Bestäubung: control = 100. The text has this: (§1) Bei Weizen und Tritikale werden Einzelisolatoren verwendet.
Pflanzen von tetraploidem Roggen Sorte Gibrid 67 werden in der V. oder VI.

Data set [4] relates to Diploider Roggen Sorte Chulpan. The experiment in a line: Field trial of gametocidal activity, diploid rye Chulpan. Type of data set: in vivo. Particulars: single compounds, 1% aqueous emulsion, 10 kg/ha; for response vs control in vivo at 10000 g/ha: read-out: Prozentsatz des Ansetzens bei freier Bestäubung, Chulpan, control = 100.
From the text: as §1
Pflanzen von diploidem Roggen Sorte Chulpan werden in der V. oder VI.
Der Verbrauch an Sterilisationsmitteln beträgt 10 kg/ha.

For data set [5], the system named is Sommerweizen Sorte Moskovskaya 35. Kind of data set: Field trial of gametocidal activity, spring wheat. The following applies: 1% aqueous emulsion; for response vs control in vivo: control = 100, read-out: Prozentsatz des Ansetzens bei freier Bestäubung. Format: in vivo, Weizen.
The test system of data set [6] is Hirse Sorte Mironovskoe 94. Kind of data set: Field trial of gametocidal activity, millet Mironovskoe 94. Type of data set: in vivo. Particulars: 1% aqueous emulsion, 10 kg/ha; for response vs control in vivo at 10000 g/ha: control = 100, read-out: Prozentsatz des Ansetzens bei freier Bestäubung.
Data set [7] concerns weisse Mäuse.
The subject of data set [8] is Tetraploider Roggen Sorte Belta. The experiment in a line: Field trial of gametocidal activity, tetraploid rye Belta. The following applies: 1% aqueous emulsion, 10 kg/ha. Format: in vivo.
Data set [9] deals with Diploider Roggen Sorte Gibrid 1864/74. The experiment in a line: Field trial of gametocidal activity, diploid rye Gibrid 1864/74. The following applies: 1% aqueous emulsion, 10 kg/ha.
The subject of data set [10] is Hirse Sorte K-9693 Kormovoe 1. Kind of data set: Field trial of gametocidal activity, millet K-9693 Kormovoe 1. The following applies: 1% aqueous emulsion, 10 kg/ha.
For data set [11] the following is noted: in vivo.
The mark [12] stands for this setting: 10 kg/ha, V. period, read-out: Prozentsatz der Sterilität.
Where [13] appears, read: V. or VI. period, read-out: Prozentsatz der Sterilität.
[14] abbreviates: Chulpan, V. or VI. period, listed as Beispiel 54.
[15] abbreviates: V. or VI. period, listed as Beispiel 74.

Molecules are shown by their SMILES. Read-outs that look alike come from different tables or passages of the source.

For `OCC(O)CSc1ccccc1F` (stereo not shown) [Beispiel 7, 3-(2'-Fluorphenylthio)-propandiol-I,2], the LD50 in [1] is 400 mg/kg. The “Anzahl von Körnern der Ähre bei freier Bestäubung” value is recorded as 36,7 in data set [2]; 42,2 in data set [3] (V. or VI. period); 53,4 in data set [4] (Chulpan, V. or VI. period); 24,6 in data set [5] (10 kg/ha, V. period). The “Anzahl von Körnern der Ähre im Isolator” value in data set [2] was 0,0; in data set [3] (V. or VI. period) it was 0,0; in data set [4] (Chulpan, V. or VI. period), 0,6; in [5] (10 kg/ha, V. period) it was 0,0. For the same molecule, the response vs control in vivo at 20000 g/ha in data set [2] was determined as 90.6%. The “Prozentsatz des Ansetzens bei freier Bestäubung” value in data set [3] is 94,4%. The percent sterility at 10000 g/ha in [4] (Chulpan, V. or VI. period, read-out: Prozentsatz der Sterilität) stood at 98.8%; in [5] (setting [12]) it was 100%. The response vs control in vivo at 10000 g/ha was 94.2% in data set [4] and 79.2% in data set [6]. In data set [5], the response vs control in vivo amounted to 89.5%. The “Anzahl von Körnern der Rispe bei freier Bestäubung” value in [6] (V. or VI. period) is given as 300,5. Also, the “Anzahl von Körnern der Rispe im Isolator” value in data set [6] (V. or VI. period) is given as 0,0. Also, in data set [6] (setting [13]), the percent pollen sterility at 10000 g/ha came to 100%.
In the case of `O=C(O)c1ccccc1F` [Beispiel 24, Diätha- nolaminat der o-Fluorbenzoesäure], in data set [7] (weisse Mäuse, listed as Diäthanolaminsalz der o-Fluarbenzoesäure), the LD50 turned out to be 500 mg/kg Tiergewicht. The “Anzahl von Körnern der Ähre bei freier Bestäubung” value in data set [4] (setting [14]) was 54,0; in data set [8] (setting [15]), 43,8; in data set [5] (10 kg/ha, V. period) it was 27,1. For the same molecule, the “Anzahl von Körnern der Ähre im Isolator” value is 0,0 in [4] (setting [14]); 0,9 in [8] (setting [15]); 2,2 in data set [5] (10 kg/ha, V. period). Besides, the pest or weed control at 10000 g/ha in data set [4] (read-out: Prozentsatz der Sterilität, Chulpan, V. or VI. period) amounted to 100%; in [8] (setting [13]), 97.8%; in [5] (setting [12]) it was 91.9%; in data set [6] (setting [13]), 100%. In addition, the response vs control in vivo at 10000 g/ha is 95.2% in data set [4]; 98.9% in [8] (control = 100, read-out: Prozentsatz des Ansetzens bei freier Bestäubung); 91.2% in data set [6]. Besides, the response vs control in vivo in data set [5] stood at 98.5%. Besides, the “Anzahl von Körnern der Rispe bei freier Bestäubung” value in data set [6] (V. or VI. period) is recorded as 348,6. Further, the “Anzahl von Körnern der Rispe im Isolator” value in data set [6] (V. or VI. period) is recorded as 0,0.
`O=C(O)c1ccc(O)cc1` [Beispiel 28, Monoäthanolaminat der p-Hydroxybenzoesäure]: the LD50 in data set [1] came to 3200 mg/kg. The “Prozentsatz der Sterilität” value in [3] (V. or VI. period) is listed as 99,7%; in data set [9] (V. period), 95,6%. The “Prozentsatz des Ansetzens bei freier Bestäubung” value in data set [3] was 93,4%; in data set [9] (control = 100) it was 97,7%. The “Anzahl von Körnern der Ähre bei freier Bestäubung” value in [9] (V. period) is reported as 46,7. The “Anzahl von Körnern der Ähre im Isolator” value in data set [9] (V. period) is reported as 1,8.
For `OCC(O)CSc1ccc(F)cc1` (stereo not shown) [Beispiel I3], the LD50 in data set [1] is approximately 400 mg/kg. Moreover, in data set [10] (V. or VI. period), the “Anzahl von Körnern der Rispe bei freier Bestäubung” value is reported as 128,7, the “Anzahl von Körnern der Rispe im Isolator” value was 0,0 and the “Prozentsatz der Sterilität” value amounted to 100%. Besides, the “Prozentsatz des Ansetzens bei freier Bestäubung” value in data set [10] (control = 100) is reported as 87,7%. For the same molecule, the LD50 in data set [7] (mouse, in vivo) is on record as 400 mg/kg Tiergewicht. For the same molecule, in data set [2], the “Anzahl von Körnern der Ähre bei freier Bestäubung” value was 38,2, the “Anzahl von Körnern der Ähre im Isolator” value is 3,2 and the response vs control in vivo at 20000 g/ha was found to be 94.3%. In addition, in data set [5] (10 kg/ha, V. period), the “Anzahl von Körnern der Ähre bei freier Bestäubung” value is 26,4 and the “Anzahl von Körnern der Ähre im Isolator” value is 2,0. In [5] (setting [12]), the percent sterility at 10000 g/ha is 92.3%. Besides, the response vs control in vivo in data set [5] stood at 96%.
`CCC(CO)(CO)CBr` [I-Brom-2,2-di-methylol-butan]: the “Toxizität im Tierversuch” value in data set [11] is given as “praktisch nichttoxische”.
Turning to `CCC(CO)(CO)CO` [Trimethylolpropan], in data set [11], the “Toxizität im Tierversuch” value is “praktisch nichttoxische”.
